In the NIST ThermoML archive (doi:10.1016/j.tca.2018.03.018):
± gives the expanded uncertainty stated by the source.

Columns and labels:
[1] = Crystal; DSC
[2] = Molar enthalpy of transition or fusion; conditions: Crystal; DSC

CCCCCCCCCCCCCCCCCC(=O)O [octadecanoic acid]
Triple point temperature [1]: 325.66 ± 1 K
Molar enthalpy of transition or fusion [2]: 12 ± 0.335 kcal/mol
